This assay deals with T1, human aquaporin 9 (Homo sapiens, UniProt O43315).
T1 construct: expressed in transfected cells; host or cells: Human AQP9 cell line with tetracycline added to the medium
T1 sequence (O43315 1-295): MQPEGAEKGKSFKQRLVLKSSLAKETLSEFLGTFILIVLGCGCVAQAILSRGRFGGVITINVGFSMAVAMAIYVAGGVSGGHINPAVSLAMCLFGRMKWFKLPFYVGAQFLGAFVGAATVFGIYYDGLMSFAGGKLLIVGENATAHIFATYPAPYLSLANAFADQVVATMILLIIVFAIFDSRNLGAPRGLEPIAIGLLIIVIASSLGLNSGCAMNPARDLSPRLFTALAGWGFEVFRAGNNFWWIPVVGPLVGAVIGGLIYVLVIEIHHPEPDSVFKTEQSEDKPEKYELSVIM
Put plainly: Calcein quenching fluostar assay. The conditions noted are these: inhibition of human aquaporin 9; Human AQP9 cell line, tetracyclin-induced; 25° C. It is filed as cell-based. The method, then: Calcein Quenching Fluostar Assay
A calcein quenching fluostar assay was performed in order to investigate the biological activity of the newly synthesized examples 1 to 57. This type of assay is disclosed in J. Biol. Chem., 2011, 286, 44319-44325 and Am. J. Physiol. Renal Physiol. (2010), 298, F224-230.
1) Two days prior to commencement of the assay, seed 10,000 cells/well of 96 well black clear bottom plate (Greiner Poly-lysin plate). A 1:1 mix of Dulbecco's Modified Eagle's Medium:Nutrient Mixture F-12 (DMEM: F12) was obtained from Gibco. Tetracycline stock of 5 mg/ml in 96% ethanol is used. Medium:DMEM/F12/10% Donor Bovine Serum, Human AQP9 cell line+1:270,000 tetracyclin, mouse AQP9 cell line+1:2,700,000 tetracycline.
2) Day of assay: Flick/slam off the medium and add 50 μl/well of loading solution: 5 ml DMEM/F12/10% Donor Bovine Serum, 25 μl Calcein AM—from freshly dissolved aliquot in 50 μl DMSO (VWR #734-1434), and 100 μl Probenecid.
3) Incubate the well for 90 minutes at 37° C.
4) Perform one wash with 75 μl wash buffer.
5) Add 75 μl of an example compound prepared in wash buffer per well.
Example compounds are prepared in 500 μl U bottom PP plates (NUNC). […] Substance in DMSO are added to row A; 180 μl of wash buffer+1% DMSO are added to rows B-H. 90 μl from row A are transferred and mixed with all other wells (up to row G) to make a 3-fold dilution series.
6) Assay in FLUOstar Optima at 25° C. Settings buffer addition at 135 μl seconds, add 75 μl/well, record time course for 30 seconds, add sucrose buffer 3.6 seconds into recording.
7) Normalization to initial in Excel.
8) Fit to “exponential decay” function in GraphPad Prism 5.0, then arrange half live shrinking values according to wells and fit dose-response curves.
For the compound `CCn1c(SCC(=O)Nc2nnc(-c3ccc(F)cc3)s2)nnc1-c1ccccn1` [Example 29, 2-{[4-Ethyl-5-(pyridin-2-yl)-4H-1,2,4-triazol-3-yl]sulfanyl}-N-[5-(4-fluorophenyl)-1,3,4-thiadiazol-2-yl]acetamide], the 50% inhibitory concentration (IC50) is 427 nM.

Regarding `CCn1c(SCC(=O)Nc2nnc(-c3ccc(F)cc3)s2)nnc1-c1cccnc1` [Example 30, 2-{[4-Ethyl-5-(pyridin-3-yl)-4H-1,2,4-triazol-3-yl]sulfanyl}-N-[5-(4-fluorophenyl)-1,3,4-thiadiazol-2-yl]acetamide], the IC50 was 110 nM. The figure for `CCn1c(SCC(=O)Nc2nnc(-c3ccc(F)cc3)s2)nnc1-c1ccncc1` [Example 31, 2-{[4-Ethyl-5-(pyridin-4-yl)-4H-1,2,4-triazol-3-yl]sulfanyl}-N-[5-(4-fluorophenyl)-1,3,4-thiadiazol-2-yl]acetamide] is 99 nM.

On to `CCCn1c(SCC(=O)Nc2nnc(-c3ccc(OC)cc3)s2)nnc1-c1ccc(F)cc1` [Example 32, 2-{[5-(4-Fluorophenyl)-4-propyl-4H-1,2,4-triazol-3-yl]sulfanyl}-N-[5-(4-methoxyphenyl)-1,3,4-thiadiazol-2-yl]acetamide], for which the IC50 was 416 nM. Consider `COc1ccc(-c2nnc(NC(=O)CSc3nnc(-c4ccc(F)cc4)n3C3CC3)s2)cc1` [Example 33, 2-{[4-Cyclopropyl-5-(4-fluorophenyl)-4H-1,2,4-triazol-3-yl]sulfanyl}-N-[5-(4-methoxyphenyl)-1,3,4-thiadiazol-2-yl]acetamide], for which the IC50 is 978 nM. On to `CCn1c(SCC(=O)Nc2nnc(-c3ccc(O)cc3)s2)nnc1-c1ccc(F)cc1` [Example 34, 2-{[4-Ethyl-5-(4-fluorophenyl)-4H-1,2,4-triazol-3-yl]sulfanyl}-N-[5(4-hydroxyphenyl)-1,3,4-thiadiazol-2-yl]acetamide], for which the IC50 was 61 nM. The figure for `CCn1c(SC(C)C(=O)Nc2nnc(-c3ccc(OC)cc3)s2)nnc1-c1ccc(F)cc1` (stereo not shown) [Example 35, 2-{[4-Ethyl-5-(4-fluorophenyl)-4H-1,2,4-triazol-3-yl]sulfanyl}-N-[5(4-methoxyphenyl)-1,3,4-thiadiazol-2-yl]propanamide] is 301 nM; for `CCn1c(SCC(=O)Nc2nnc(-c3ccc(OS(C)(=O)=O)cc3)s2)nnc1-c1ccc(F)cc1` [Example 36, 4-[5-(2-{[4-Ethyl-5-(4-fluorophenyl)-4H-1,2,4-triazol-3-yl]sulfanyl}acetamido)-1,3,4-thiadiazol-2-yl]phenyl methanesulfonate] it is 129 nM; for `CCn1c(SCC(=O)Nc2nnc(-c3ccc(OCCOC)cc3)s2)nnc1-c1ccc(F)cc1` [Example 37, 2-{[4-ethyl-5-(4-fluorophenyl)-4H-1,2,4-triazol-3-yl]sulfanyl}-N-{5-[4-(2-methoxyethoxy)phenyl]-1,3,4-thiadiazol-2-yl}acetamide] it is 82 nM. The figure for `CCn1c(SCC(=O)Nc2nnc(-c3ccccc3F)s2)nnc1-c1ccc(F)cc1` [Example 38, 2-{[4-ethyl-5-(4-fluorophenyl)-4H-1,2,4-triazol-3-yl]sulfanyl}-N-[5-(2-fluorophenyl)-1,3,4-thiadiazol-2-yl]acetamide] is 190 nM; for `CCn1c(SCC(=O)Nc2nnc(-c3ccc(OC)cc3)s2)nnc1-c1cccc(Cl)c1` [Example 39, 2-{[5-(3-chlorophenyl)-4-ethyl-4H-1,2,4-triazol-3-yl]sulfanyl}-N-[5-(4-methoxyphenyl)-1,3,4-thiadiazol-2-yl]acetamide] it is 113 nM; for `CCn1c(SCC(=O)Nc2nnc(-c3ccc(OC)cc3)s2)nnc1-c1ccc(Cl)cc1` [Example 40, 2-{[5-(4-chlorophenyl)-4-ethyl-4H-1,2,4-triazol-3-yl]sulfanyl}-N-[5-(4-methoxyphenyl)-1,3,4-thiadiazol-2-yl]acetamide] it is 810 nM. Turning to `CCn1c(SCC(=O)Nc2nnc(-c3ccc(OC)cc3)s2)nnc1-c1ccccn1` [Example 41, 2-{[4-ethyl-5-(pyridin-2-yl)-4H-1,2,4-triazol-3-yl]sulfanyl}-N-[5-(4-methoxyphenyl)-1,3,4-thiadiazol-2-yl]acetamide], the IC50 was 260 nM.

Usually IC50 stands for the midpoint of a concentration-inhibition curve.

The record behind these values is patent US10011597B2 (APOGLYX AB, priority 2014, dated 2018).
